Laboratory results from BindingDB's records for doi:10.1016/s0960-894x(01)00248-7 (Smithkline Beecham Pharmaceuticals, 2001).
Several values for one entry are separate records, joined by “and”; a condition that tells them apart may be missing. Equal values may be shown once.

Assay: Agonistic activity of the compound against C-C chemokine receptor type 3 by displacing Eotaxin radioligand,using Esonophil chemotaxis assay

IC50: 32 nM and 25 nM
Structure (SMILES): COC(=O)[C@H](Cc1ccc([N+](=O)[O-])cc1)NC(=O)c1cccc2ccccc12 [(S)-2-[(Naphthalene-1-carbonyl)-amino]-3-(4-nitro-phenyl)-propionic acid methyl ester]
